{"source": "paper PMC6862253", "about": "“Synthesis and Evaluation of Anticancer Activity of New 4-Acyloxy Derivatives of Robustic Acid” (International Journal of Molecular Sciences, 2019)", "key": {"[1]": {"system": "human hepatic carcinoma cells SMMC-7721", "test": "MTS anti-proliferative assay, SMMC-7721", "assay_type": "cell-based", "conditions": "mean ± SD", "protocol": "(§1) The MTS (3-(4,5-dimethylthiazole-2-yl)-5-(3-carboxymethoxyphenyl)-2-(4-sulfophenyl)-2H- tetrazolium) (Promega, Madison, WI, USA) assay was used to determine the IC50 value for all compounds, according to [26]. We used a panel of five human carcinoma cell lines and two normal cells including HL-60, A549, SMMC-7721, HepG2, Hela, LO2 and BEAS-2B. Cells were seeded in 96-well plates at a density of 3 × 10^3–1.5 × 10^4 cells/well in 100 μL medium (DMEM or RMPI1640) and incubated for 12–24 h at 37 °C. Subsequently, cells were exposed to drugs in an additional 100 μL medium and were further incubated at 37 °C for 48 h. In brief, 100 μL MTS reagent supplement with 100 μL medium was added directly to the wells and cells were incubated at 37 °C for a minimum of 2 h. Colorimetric measurements were recorded at 492 nm. Background absorbance was corrected using triplicate sets of wells[…] containing medium only (no cells), and MTS reagent was added per experimental well. Each experiment was performed at least three times, and values in results are represented as mean ± SD."}, "[2]": {"system": "human hepatocellular carcinoma cells HepG2", "test": "MTS anti-proliferative assay, HepG2", "assay_type": "cell-based", "conditions": "mean ± SD", "protocol": "as §1"}, "[3]": {"system": "human normal lung epithelial cells BEAS-2B", "test": "MTS cytotoxicity assay, normal BEAS-2B cells", "assay_type": "cell-based", "conditions": "48 h, mean ± SD", "protocol": "as §1"}, "[4]": {"system": "human non-small cell lung carcinoma cells A-549", "test": "MTS anti-proliferative assay, A-549", "assay_type": "cell-based", "conditions": "mean ± SD", "protocol": "as §1"}, "[5]": {"system": "human normal liver cells LO2", "test": "MTS cytotoxicity assay, normal LO2 cells", "assay_type": "cell-based", "conditions": "mean ± SD", "protocol": "as §1"}, "[6]": {"system": "human leukemic cells HL-60", "test": "MTS anti-proliferative assay, HL-60", "assay_type": "cell-based", "conditions": "mean ± SD", "protocol": "as §1"}, "[7]": {"system": "human cervical carcinoma cells Hela", "test": "MTS anti-proliferative assay, Hela", "assay_type": "cell-based", "conditions": "48 h, mean ± SD", "protocol": "as §1"}, "[8]": {"biological_target": "T1, DNA topoisomerase I (Topo I) (Bos taurus, UniProt F1MN93)", "T1 construct": "purchased Takara Bio Inc", "T1 sequence (F1MN93 1-767)": "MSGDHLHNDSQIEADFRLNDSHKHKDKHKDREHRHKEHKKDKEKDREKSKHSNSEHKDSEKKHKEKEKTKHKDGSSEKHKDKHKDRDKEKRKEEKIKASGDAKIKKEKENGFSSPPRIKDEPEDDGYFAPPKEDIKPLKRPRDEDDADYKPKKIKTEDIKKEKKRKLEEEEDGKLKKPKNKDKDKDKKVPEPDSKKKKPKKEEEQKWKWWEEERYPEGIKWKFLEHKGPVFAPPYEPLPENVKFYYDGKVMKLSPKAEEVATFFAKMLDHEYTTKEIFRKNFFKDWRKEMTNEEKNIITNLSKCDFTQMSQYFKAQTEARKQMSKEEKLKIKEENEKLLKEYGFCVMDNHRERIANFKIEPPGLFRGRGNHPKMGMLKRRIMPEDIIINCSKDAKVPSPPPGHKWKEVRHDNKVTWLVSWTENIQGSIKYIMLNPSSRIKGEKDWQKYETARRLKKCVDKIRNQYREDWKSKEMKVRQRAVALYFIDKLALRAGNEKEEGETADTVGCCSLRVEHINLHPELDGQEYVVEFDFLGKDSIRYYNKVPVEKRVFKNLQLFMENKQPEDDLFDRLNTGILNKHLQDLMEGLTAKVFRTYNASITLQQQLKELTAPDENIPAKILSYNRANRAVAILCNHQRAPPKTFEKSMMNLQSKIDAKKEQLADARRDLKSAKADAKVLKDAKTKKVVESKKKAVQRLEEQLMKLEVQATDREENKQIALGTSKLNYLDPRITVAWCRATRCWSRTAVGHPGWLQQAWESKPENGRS", "test": "Topo I inhibitory activity, supercoiled DNA unwinding, agarose gel", "assay_type": "biochemical", "from_the_text": "DNA Topo I is an important enzyme in all living organisms, and it participates in many cellular metabolic processes, such as replication, transcription, recombination, and repair. DNA Topo I has been established as a molecular target of anticancer drugs. A combined study of synthesis and docking for the anti-cancer activity of novel coumarins concluded that coumarin derivatives are potent cytotoxic agents. […] Currently, discovering novel non-camptothecin inhibitors for DNA Topo I has become an important area of research. Thus, a DNA Topo I inhibitory activity assay was also carried out using the supercoiled DNA unwinding method in this study. […] Therefore, compounds 2d, 2g, and 2i were selected for further quantitative investigation (depicted in Figure 5B). […] This correlates well with the cytotoxicity to HL-60, A-549, and SMMC-7721 cells. Thus, we infer that the anti-proliferative activity of 4-acyloxy derivatives of RA to these three cells may be related to Topo I. Supercoiled […] DNA was used as a substrate to determine the Topo I catalytic activity. Commercial samples of Topo I and pBR322 were obtained from Takara Bio Inc. The buffer solutions were prepared using 500 mM KAc, 200 mM Tris-Ac, 100 mM Mg(Ac)2, and 1 mg/mL BSA. The procedure used for determination of enzyme inhibitory activity was similar to one reported by Xu et al.."}}}
{"smiles": "COC1=c2c(OC(=O)c3ccc(Br)cc3F)c(-c3ccc(OC)cc3)c(=O)oc2=CC2OC(C)(C)C=CC12", "note": "(centres unmarked) [Compound 2i, 4-O-(4-Bromo-2-fluorobenzoyl) robustic acid]", "values": [{"measurement": "melting point", "result": "250.8 to 251.9", "unit": "°C"}]}
{"smiles": "COc1ccc(-c2c(O)c3c(OC)c4c(cc3oc2=O)OC(C)(C)C=C4)cc1", "note": "[RA, robustic acid]", "values": [{"measurement": "IC50", "setting": "[1]; Homo sapiens, SMMC-7721, 48 h", "result": "> 100", "unit": "µM"}, {"measurement": "IC50", "setting": "[2]; Homo sapiens, HepG2, 48 h", "result": "> 100", "unit": "µM"}, {"measurement": "IC50", "setting": "[3]; Homo sapiens, BEAS-2B", "result": "> 100", "unit": "µM"}, {"measurement": "IC50", "setting": "[4]; Homo sapiens, A549, 48 h", "result": "> 100", "unit": "µM"}, {"measurement": "IC50", "setting": "[5]; Homo sapiens, L02, 48 h", "result": "> 100", "unit": "µM"}, {"measurement": "IC50", "setting": "[6]; Homo sapiens, HL-60, 48 h", "result": "> 100", "unit": "µM"}, {"measurement": "IC50", "setting": "[7]; Homo sapiens, HeLa", "result": "> 100", "unit": "µM"}, {"measurement": "Topo I inhibitory activity", "setting": "[8]; concentrations lower than 10 mM", "result": "no inhibitory activity was found"}]}
{"smiles": "COC1=c2c(OC(=O)c3cccs3)c(-c3ccc(OC)cc3)c(=O)oc2=CC2OC(C)(C)C=CC12", "note": "(centres unmarked) [Compound 2e, 4-O-Thenoyl robustic acid]", "values": [{"measurement": "melting point", "result": "171.5 to 182.3", "unit": "°C"}]}
{"smiles": "COC1=c2c(OC(=O)c3ccc(C(F)(F)F)cc3)c(-c3ccc(OC)cc3)c(=O)oc2=CC2OC(C)(C)C=CC12", "note": "(centres unmarked) [Compound 2d, 4-O-(p-Trifluoromethylbenzoyl)robustic acid]", "values": [{"measurement": "melting point", "result": "225.6 to 228.5", "unit": "°C"}]}
{"smiles": "COC1=c2c(OC(=O)c3ccc([N+](=O)[O-])cc3)c(-c3ccc(OC)cc3)c(=O)oc2=CC2OC(C)(C)C=CC12", "note": "(centres unmarked) [Compound 2g, 4-O-(p-Nitrobenzoyl)robustic acid]", "values": [{"measurement": "melting point", "result": "239.5 to 241.9", "unit": "°C"}]}
{"smiles": "COC1=c2c(OC(C)=O)c(-c3ccc(OC)cc3)c(=O)oc2=CC2OC(C)(C)C=CC12", "note": "(centres unmarked) [Compound 2j, 4-O-Acetylrobustic acid]", "values": [{"measurement": "melting point", "result": "189.9 to 192.1", "unit": "°C"}]}
{"smiles": "CC[C@@]1(O)C(=O)OCc2c1cc1n(c2=O)Cc2cc3ccccc3nc2-1", "note": "[CPT, camptothecin]", "values": [{"measurement": "IC50", "setting": "[1]; Homo sapiens, SMMC-7721, 48 h", "result": "18.9 ± 4.12", "unit": "µM"}, {"measurement": "IC50", "setting": "[2]; Homo sapiens, HepG2, 48 h", "result": "1.3 ± 0.62", "unit": "µM"}, {"measurement": "IC50", "setting": "[3]; Homo sapiens, BEAS-2B", "result": "2.16 ± 0.47", "unit": "µM"}, {"measurement": "IC50", "setting": "[4]; Homo sapiens, A549, 48 h", "result": "15.3 ± 1.22", "unit": "µM"}, {"measurement": "IC50", "setting": "[5]; Homo sapiens, L02, 48 h", "result": "0.03 ± 0.002", "unit": "µM"}, {"measurement": "IC50", "setting": "[6]; Homo sapiens, HL-60, 48 h", "result": "12.2 ± 1.06", "unit": "µM"}, {"measurement": "IC50", "setting": "[7]; Homo sapiens, HeLa", "result": "0.5 ± 0.08", "unit": "µM"}]}
{"smiles": "COc1ccc(-c2c(OC(=O)c3ccc(F)cc3)c3c(OC)c4c(cc3oc2=O)OC(C)(C)C=C4)cc1", "note": "[Compound 2f, 4-O-(p-Fluorobenzoyl)robustic acid]", "values": [{"measurement": "IC50", "setting": "[1]; Homo sapiens, SMMC-7721, 48 h", "result": "66.2 ± 5.7", "unit": "µM"}, {"measurement": "IC50", "setting": "[2]; Homo sapiens, HepG2, 48 h", "result": "87.3 ± 2.14", "unit": "µM"}, {"measurement": "IC50", "setting": "[3]; Homo sapiens, BEAS-2B", "result": "> 100", "unit": "µM"}, {"measurement": "IC50", "setting": "[4]; Homo sapiens, A549, 48 h", "result": "> 100", "unit": "µM"}, {"measurement": "IC50", "setting": "[5]; Homo sapiens, L02, 48 h", "result": "> 100", "unit": "µM"}, {"measurement": "IC50", "setting": "[6]; Homo sapiens, HL-60, 48 h", "result": "> 100", "unit": "µM"}, {"measurement": "melting point", "result": "236.8 to 239.6", "unit": "°C"}, {"measurement": "IC50", "setting": "[7]; Homo sapiens, HeLa", "result": "65.1 ± 1.27", "unit": "µM"}, {"measurement": "Topo I inhibitory activity", "setting": "[8]; gel electrophoresis", "result": "moderate inhibitory activities"}]}
{"smiles": "N.N.[Cl][Pt][Cl]", "note": "[cisplatin]", "values": [{"measurement": "IC50", "setting": "[1]; 48 h", "result": "1.32 ± 0.97", "unit": "µM"}, {"measurement": "IC50", "setting": "[2]; 48 h", "result": "10.6 ± 1.4", "unit": "µM"}, {"measurement": "IC50", "setting": "[3]", "result": "57.7 ± 3.1", "unit": "µM"}, {"measurement": "IC50", "setting": "[4]; 48 h", "result": "25.4 ± 1.06", "unit": "µM"}, {"measurement": "IC50", "setting": "[5]; 48 h", "result": "< 0.008", "unit": "µM"}, {"measurement": "IC50", "setting": "[6]; 48 h", "result": "14.2 ± 0.56", "unit": "µM"}, {"measurement": "IC50", "setting": "[7]", "result": "5.83 ± 0.14", "unit": "µM"}]}
{"smiles": "COC1=c2c(OC(=O)c3ccccc3)c(-c3ccc(OC)cc3)c(=O)oc2=CC2OC(C)(C)C=CC12", "note": "(centres unmarked) [Compound 2a, 4-O-Benzoyl-robustic acid]", "values": [{"measurement": "melting point", "result": "266.4 to 273.4", "unit": "°C"}]}
{"smiles": "CCc1ccc(C(=O)Oc2c(-c3ccc(OC)cc3)c(=O)oc3c2=C(OC)C2C=CC(C)(C)OC2C=3)cc1", "note": "(centres unmarked) [Compound 2h, 4-O-(p-Ethylbenzoyl)robustic acid]", "values": [{"measurement": "melting point", "result": "246.9 to 250.2", "unit": "°C"}]}
